From patent US20140235643A1, “NOVEL QUINOXALINE INHIBITORS OF PI3K” (GILEAD CALISTOGA LLC, priority 2011, published 2014)
pEC50, pIC50: −log10 of the molar value.

Columns and labels:
PI3Kγ (p110 gamma) = target: T1, PI3Kγ (p110 gamma) (Homo sapiens, UniProt P48736); experiment: PI3K biochemical enzyme assay (Adapta universal kinase assay), p110 gamma; details: for pIC50: Table 1, lower part, read-out: PI3Kγ IC50; for inhibition at 1 µM / inhibition at 10 µM: read-out: PI3Kγ % inhib; for increase in gamma potency compared to analog without amino substituent on the purine ring: Q17 vs Q16, Q15 vs Q14
T1 construct: purchased Invitrogen
Experimental: (§1) This example describes a method of obtaining in vitro activity data concerning the effect of compounds of on various PI3K isoforms. The effect of compounds on the kinase activity of Class I PI3Ks was measured at Invitrogen by using the Adapta® universal kinase assay. It was a homogenous, fluorescent based immunoassay for the detection of ADP produced by the kinase reaction. This assay can be divided into two phases: a kinase reaction phase, and an ADP detection phase. In the kinase reaction phase, all components required for the kinase reaction were added to the well, and the reaction was allowed to incubate for 60 minutes. After the reaction, a detection solution consisting of a europium labeled anti-ADP antibody, an Alexa Fluor® 647 labeled ADP tracer, and EDTA (to stop the kinase reaction) was added to the assay well. ADP formed by the kinase reaction (in the absence of an inhibitor) displaced the Alexa Fluor® 647 labeled ADP tracer from the antibody, resulting in a decrease in the TR-FRET signal.
(§2) ADP formation was determined by calculating the emission ratio from the assay well. The emission ratio was calculated by dividing the intensity of the tracer (acceptor) emission by the intensity of the Eu (donor) emission at 615 nm as shown in the equation below.
(§3) The Test Compounds were screened in 1% DMSO (final) in the well. All Substrate/Kinase Mixtures were diluted to a 2× working concentration in the appropriate Kinase Buffer as described below for the individual kinase:
The 2× p110 gamma/PIP2:PS mixture was prepared in 50 mM HEPES pH 7.5, 1 mM EGTA, 3 mM mgCl2. The final […] Kinase Reaction consisted of 3.5-26 ng p110 gamma and 50 μM PIP2:PS in 32.5 mM HEPES pH 7.5, 0.5 mM EGTA, 1.5 mM mgCl2. After the 1 hour Kinase Reaction incubation, 5 μL of Detection Mix was added.
(§4) The Detection mix consisted of EDTA (30 mM), Eu-anti-ADP antibody (30 nM) and ADP tracer. All ATP Solutions were diluted to a 4× working concentration in water and used at the Km apparent concentrations for each individual kinase.

PI3Kδ (p110δ/p85α) = target: T2, PI3Kδ (p110δ/p85α) (Homo sapiens, UniProt O00329); experiment: PI3K biochemical enzyme assay (Adapta universal kinase assay), p110 delta/p85 alpha; details: for pIC50: Table 1, lower part, read-out: PI3Kδ IC50
T2 construct: purchased Invitrogen
Experimental: as §1, §2, §3
(§5) The 2× p110 delta/p85 alpha/PIP2:PS mixture was prepared in 50 mM HEPES pH 7.5, 100 mM NaCl, 0.03% CHAPS, 3 mM mgCl2, 1 mM EGTA. The final 10 μL Kinase Reaction consisted of 0.35-2.6 ng p110 delta/p85 alpha and 50 μM PIP2:PS in 32.5 mM HEPES pH 7.5, 50 mM NaCl, 0.015% CHAPS, 1.5 mM mgCl2, 0.5 mM EGTA. After the 1 hour Kinase Reaction incubation, 50 μL of Detection Mix was added.
as §4

PI3Kα (p110α/p85α) = target: T3, PI3Kα (p110α/p85α) (Homo sapiens, UniProt P42336); experiment: PI3K biochemical enzyme assay (Adapta universal kinase assay), p110 alpha/p85 alpha; details: for pIC50: Table 1, lower part, read-out: PI3Kα IC50
T3 construct: purchased Invitrogen
Experimental: as §1, §2, §3
as §5, with “p110 alpha/p85” for “p110 delta/p85”, “of 0.3-1.5” for “of 0.35-2.6”, “incubation, 5” for “incubation, 50”
as §4

PI3Kβ (p110β/p85α) = target: T4, PI3Kβ (p110β/p85α) (Homo sapiens, UniProt P42338); experiment: PI3K biochemical enzyme assay (Adapta universal kinase assay), p110 beta/p85 alpha; details: for inhibition at 10 µM: read-out: PI3Kβ % inhib; for pIC50: Table 1, lower part, read-out: PI3Kβ IC50
T4 construct: purchased Invitrogen
Experimental: as §1, §2, §3
The 2× p 110beta/p85 alpha/PIP2:PS mixture was prepared in 50 mM HEPES pH 7.5, 100 mM NaCl, 0.03% CHAPS, 1 mM EGTA, 3 mM mgCl2, and 2 mM DTT. The final 10 μL Kinase Reaction consisted of 35.4 ng p110 beta/p85 alpha and 50 μM PIP2:PS. After the 1 hour Kinase Reaction incubation, 5 μL of Detection Mix was added.
as §4

PI3Kα = target: T5, PI3Kα (Mus musculus, UniProt P42337); experiment: PI3Kα-dependent cell-based assay: PDGF-BB mediated AKT phosphorylation in Swiss-3T3 cells; details: PDGF-BB-induced AKT phosphorylation, Swiss-3T3 fibroblasts
T5 construct: endogenous in cells; host or cells: Swiss-3T3 fibroblasts (ATCC)
Experimental: (§6) PDGF-BB-induced AKT phosphorylation in Swiss-3T3 fibroblasts is mediated by p110α. C5a-induced AKT phosphorylation in RAW-264 murine macrophages is mediated exclusively by p110γ.
PI3Kα-Dependent Cell-Based Assay: PDGF-BB Mediated AKT Phosphorylation in Swiss-3T3 Cells
Swiss-3T3 fibroblasts (American Type Culture Collection) were cultured with DMEM containing 10% fetal bovine serum and the antibiotics penicillin and streptomycin. Cells were seeded on a 96-well Tissue Culture Plate at 25,000 cells/well and allowed to reach at least 90% confluency. The cells were starved for 2 to 12 hr in 0.1% FBS containing medium and then were pretreated with inhibitors or DMSO for 2 hr. The cells were stimulated for 15 min with 10 ng/ml PDGF-BB (Cell Signaling Technology) at 37° C. in 5% CO2. The culture medium was removed and cells were fixed for 20 min at room temperature by addition of 100 μl of 4% cell fixing buffer to each well. AKT phosphorylation and total AKT was detected by ELISA.
(§7) Detection of Phospho-Ser-473 AKT and Total AKT by ELISA
(§8) The fixed cells were washed twice with 150 μl of wash buffer (WB) and quenched by incubating with 100 μl of Quenching Buffer for 20 min at room temperature. Cells were washed once with 150 μl WB and blocked by incubating with 100 μl of Blocking Buffer for 1 hr at room temperature. Cells were incubated with 50 μl of primary antibody diluted in Blocking Buffer, either phospho-Ser-473 AKT specific (1:150 dilution) or total-AKT antibody (1:200 dilution), to each specific well. The negative control wells contained 50 μl of Blocking Buffer. Plates were sealed with plate sealing film and incubated overnight at 4° C. Cells were washed twice with 150 μl WB followed by addition of 50 μl per well of DELFIA secondary antibody (50 ng/well, diluted in DELFIA Assay Buffer). After 2 hr incubation at room temperature, cells were washed 4 times with 150 μl of Europium Wash Solution followed by addition of 100 μl of DELFIA Enhancing Solution to each well. Plates were incubated for 5 min in the dark and fluorescent signal was read using SpectraMax M5™ (Molecular Devices). Total AKT level was determined to verify equal cell number per well. The average background fluorescence values from wells that received vehicle control in the absence of PDGF-BB or C5a were subtracted from all the values of experimental conditions. Fluorescence values corresponding to phosphorylated AKT from wells that received PDGF-BB or C5a were normalized to 100% and compound effect was plotted as % change relative to the vehicle control.

PI3Kγ = target: T6, PI3Kγ (Mus musculus, UniProt Q9JHG7); experiment: PI3Kγ-dependent cell-based assay: C5a-mediated AKT phosphorylation in RAW-264 cells; design: species or system murine; details: C5a-induced AKT phosphorylation, RAW-264 macrophages
T6 construct: endogenous in cells; host or cells: RAW-264 macrophage cells (ATCC)
Experimental: as §6
PI3Kγ-Dependent Cell-Based Assay: C5a-Mediated AKT Phosphorylation in RAW-264 Cells
RAW-264 macrophage cells (American Type Culture Collection) were cultured with Dulbecco's modified Eagle medium (DMEM) containing 10% fetal bovine serum and the antibiotics penicillin and streptomycin. Cells were seeded on a 96-well Tissue Culture Plate at 100,000 to 200,000 cells/well the day before the experiment. Next day, cells were starved for 2 hr in 0.1% FBS containing medium. The cells were pretreated with inhibitors or DMSO for 2 hr and stimulated for 5 min with 75 ng/ml C5a (R&D) at 37° C. in 5% CO2. The culture medium was removed and cells were fixed for 20 min at room temperature by addition of 100 μl of 4% cell fixing buffer to each well. AKT phosphorylation and total AKT was detected by ELISA.
as §7, §8

T2 sequence (O00329 whole entry): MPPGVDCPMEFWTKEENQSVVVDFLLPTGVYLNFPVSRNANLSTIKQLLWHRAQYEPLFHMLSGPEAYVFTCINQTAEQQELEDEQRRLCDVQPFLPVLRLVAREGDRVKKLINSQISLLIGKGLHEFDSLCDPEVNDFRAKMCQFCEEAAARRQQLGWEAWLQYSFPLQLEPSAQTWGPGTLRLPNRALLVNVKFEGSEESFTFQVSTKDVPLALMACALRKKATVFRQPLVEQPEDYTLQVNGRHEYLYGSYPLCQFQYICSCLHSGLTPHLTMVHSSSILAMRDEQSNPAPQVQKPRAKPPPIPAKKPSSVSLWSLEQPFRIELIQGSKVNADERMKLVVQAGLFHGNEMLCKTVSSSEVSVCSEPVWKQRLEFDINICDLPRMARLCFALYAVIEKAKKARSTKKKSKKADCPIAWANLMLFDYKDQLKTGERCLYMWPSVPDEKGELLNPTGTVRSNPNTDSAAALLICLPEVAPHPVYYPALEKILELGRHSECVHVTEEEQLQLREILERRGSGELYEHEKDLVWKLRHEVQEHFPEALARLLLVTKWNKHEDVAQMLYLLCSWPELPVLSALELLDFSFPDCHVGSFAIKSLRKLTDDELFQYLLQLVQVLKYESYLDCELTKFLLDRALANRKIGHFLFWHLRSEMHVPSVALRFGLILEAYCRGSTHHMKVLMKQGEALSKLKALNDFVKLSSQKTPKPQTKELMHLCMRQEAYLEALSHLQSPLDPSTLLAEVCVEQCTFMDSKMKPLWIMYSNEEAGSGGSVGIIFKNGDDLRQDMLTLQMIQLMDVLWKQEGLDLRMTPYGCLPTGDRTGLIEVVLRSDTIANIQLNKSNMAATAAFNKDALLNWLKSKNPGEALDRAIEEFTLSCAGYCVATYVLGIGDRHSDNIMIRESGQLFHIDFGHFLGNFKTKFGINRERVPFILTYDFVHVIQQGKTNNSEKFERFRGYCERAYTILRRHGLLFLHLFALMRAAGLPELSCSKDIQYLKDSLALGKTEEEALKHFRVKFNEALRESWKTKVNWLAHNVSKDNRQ
T2 sequence (P27986 whole entry partner): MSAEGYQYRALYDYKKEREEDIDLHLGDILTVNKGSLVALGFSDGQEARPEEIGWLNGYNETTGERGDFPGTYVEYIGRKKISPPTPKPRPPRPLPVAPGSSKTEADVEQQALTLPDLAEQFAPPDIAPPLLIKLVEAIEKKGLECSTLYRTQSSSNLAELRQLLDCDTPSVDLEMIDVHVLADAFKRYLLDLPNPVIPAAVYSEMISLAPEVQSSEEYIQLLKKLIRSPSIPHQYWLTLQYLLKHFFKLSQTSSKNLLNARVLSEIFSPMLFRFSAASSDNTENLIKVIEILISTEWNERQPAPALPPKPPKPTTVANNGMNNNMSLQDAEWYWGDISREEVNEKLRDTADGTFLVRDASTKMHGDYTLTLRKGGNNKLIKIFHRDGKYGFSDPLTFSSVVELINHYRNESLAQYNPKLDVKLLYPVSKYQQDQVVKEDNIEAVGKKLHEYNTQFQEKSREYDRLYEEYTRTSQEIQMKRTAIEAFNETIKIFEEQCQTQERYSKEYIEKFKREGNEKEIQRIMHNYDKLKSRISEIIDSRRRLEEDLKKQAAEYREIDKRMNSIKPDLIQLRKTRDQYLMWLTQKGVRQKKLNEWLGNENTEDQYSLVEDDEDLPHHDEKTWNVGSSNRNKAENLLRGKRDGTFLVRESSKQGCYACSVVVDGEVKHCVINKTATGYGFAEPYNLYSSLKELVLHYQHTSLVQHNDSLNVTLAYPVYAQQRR
T6 sequence (Q9JHG7 whole entry): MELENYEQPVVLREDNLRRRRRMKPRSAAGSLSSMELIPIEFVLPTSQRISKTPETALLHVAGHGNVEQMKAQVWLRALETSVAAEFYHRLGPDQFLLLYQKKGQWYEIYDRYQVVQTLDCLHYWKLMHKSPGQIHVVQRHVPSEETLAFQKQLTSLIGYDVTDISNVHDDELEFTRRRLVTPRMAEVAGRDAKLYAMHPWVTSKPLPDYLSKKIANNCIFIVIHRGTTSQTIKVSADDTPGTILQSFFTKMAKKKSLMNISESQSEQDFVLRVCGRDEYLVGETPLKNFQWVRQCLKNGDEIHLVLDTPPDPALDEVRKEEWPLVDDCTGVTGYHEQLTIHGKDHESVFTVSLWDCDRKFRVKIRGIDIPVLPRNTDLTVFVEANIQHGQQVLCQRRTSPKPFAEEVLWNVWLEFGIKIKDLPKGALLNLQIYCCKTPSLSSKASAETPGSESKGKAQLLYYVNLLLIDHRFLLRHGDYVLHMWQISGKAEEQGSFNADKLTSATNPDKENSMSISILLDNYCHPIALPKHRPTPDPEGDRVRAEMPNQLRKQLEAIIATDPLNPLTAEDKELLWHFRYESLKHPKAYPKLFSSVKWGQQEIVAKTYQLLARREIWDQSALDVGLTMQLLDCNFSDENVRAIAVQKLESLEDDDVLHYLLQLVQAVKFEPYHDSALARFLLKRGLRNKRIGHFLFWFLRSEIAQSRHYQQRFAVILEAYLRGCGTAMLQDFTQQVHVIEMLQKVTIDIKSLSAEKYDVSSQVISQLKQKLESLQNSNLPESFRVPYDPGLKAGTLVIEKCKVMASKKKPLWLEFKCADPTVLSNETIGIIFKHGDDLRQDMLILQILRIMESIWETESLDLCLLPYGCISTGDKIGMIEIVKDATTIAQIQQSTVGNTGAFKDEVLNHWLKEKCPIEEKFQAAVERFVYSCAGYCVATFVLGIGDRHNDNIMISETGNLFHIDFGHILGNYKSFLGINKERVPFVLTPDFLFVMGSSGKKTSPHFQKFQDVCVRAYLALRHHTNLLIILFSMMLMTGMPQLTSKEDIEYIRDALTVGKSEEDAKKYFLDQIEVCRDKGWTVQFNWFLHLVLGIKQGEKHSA
T3 sequence (P42336 whole entry): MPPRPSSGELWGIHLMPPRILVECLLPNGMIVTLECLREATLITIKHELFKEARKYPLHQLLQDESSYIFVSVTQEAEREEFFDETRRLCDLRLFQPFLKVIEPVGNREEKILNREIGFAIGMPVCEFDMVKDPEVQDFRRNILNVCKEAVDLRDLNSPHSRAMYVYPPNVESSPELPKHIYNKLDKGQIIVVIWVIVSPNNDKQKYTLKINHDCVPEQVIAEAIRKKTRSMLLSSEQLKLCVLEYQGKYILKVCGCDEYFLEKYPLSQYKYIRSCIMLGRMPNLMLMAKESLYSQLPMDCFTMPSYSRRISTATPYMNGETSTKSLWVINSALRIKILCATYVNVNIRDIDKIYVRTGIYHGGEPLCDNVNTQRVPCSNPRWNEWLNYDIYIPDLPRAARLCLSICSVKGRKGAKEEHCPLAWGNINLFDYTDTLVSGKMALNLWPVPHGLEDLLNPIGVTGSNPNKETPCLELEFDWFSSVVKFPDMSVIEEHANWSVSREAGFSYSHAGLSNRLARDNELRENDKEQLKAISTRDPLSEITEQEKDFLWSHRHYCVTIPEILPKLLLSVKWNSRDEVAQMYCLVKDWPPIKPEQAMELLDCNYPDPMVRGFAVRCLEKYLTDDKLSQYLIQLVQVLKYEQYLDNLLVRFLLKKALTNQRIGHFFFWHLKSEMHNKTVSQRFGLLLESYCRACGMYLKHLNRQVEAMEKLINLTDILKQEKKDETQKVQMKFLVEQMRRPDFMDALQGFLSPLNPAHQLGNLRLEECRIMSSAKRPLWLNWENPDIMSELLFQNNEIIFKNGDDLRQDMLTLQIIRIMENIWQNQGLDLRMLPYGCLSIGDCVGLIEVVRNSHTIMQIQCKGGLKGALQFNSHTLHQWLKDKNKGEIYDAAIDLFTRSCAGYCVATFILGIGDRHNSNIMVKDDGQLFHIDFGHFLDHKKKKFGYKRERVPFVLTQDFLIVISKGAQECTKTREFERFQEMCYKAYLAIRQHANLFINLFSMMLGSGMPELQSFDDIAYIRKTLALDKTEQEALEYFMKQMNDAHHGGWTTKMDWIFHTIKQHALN
T3 sequence (P27986 whole entry partner): as the sequence (P27986 whole entry partner) above
T1 sequence (P48736 whole entry): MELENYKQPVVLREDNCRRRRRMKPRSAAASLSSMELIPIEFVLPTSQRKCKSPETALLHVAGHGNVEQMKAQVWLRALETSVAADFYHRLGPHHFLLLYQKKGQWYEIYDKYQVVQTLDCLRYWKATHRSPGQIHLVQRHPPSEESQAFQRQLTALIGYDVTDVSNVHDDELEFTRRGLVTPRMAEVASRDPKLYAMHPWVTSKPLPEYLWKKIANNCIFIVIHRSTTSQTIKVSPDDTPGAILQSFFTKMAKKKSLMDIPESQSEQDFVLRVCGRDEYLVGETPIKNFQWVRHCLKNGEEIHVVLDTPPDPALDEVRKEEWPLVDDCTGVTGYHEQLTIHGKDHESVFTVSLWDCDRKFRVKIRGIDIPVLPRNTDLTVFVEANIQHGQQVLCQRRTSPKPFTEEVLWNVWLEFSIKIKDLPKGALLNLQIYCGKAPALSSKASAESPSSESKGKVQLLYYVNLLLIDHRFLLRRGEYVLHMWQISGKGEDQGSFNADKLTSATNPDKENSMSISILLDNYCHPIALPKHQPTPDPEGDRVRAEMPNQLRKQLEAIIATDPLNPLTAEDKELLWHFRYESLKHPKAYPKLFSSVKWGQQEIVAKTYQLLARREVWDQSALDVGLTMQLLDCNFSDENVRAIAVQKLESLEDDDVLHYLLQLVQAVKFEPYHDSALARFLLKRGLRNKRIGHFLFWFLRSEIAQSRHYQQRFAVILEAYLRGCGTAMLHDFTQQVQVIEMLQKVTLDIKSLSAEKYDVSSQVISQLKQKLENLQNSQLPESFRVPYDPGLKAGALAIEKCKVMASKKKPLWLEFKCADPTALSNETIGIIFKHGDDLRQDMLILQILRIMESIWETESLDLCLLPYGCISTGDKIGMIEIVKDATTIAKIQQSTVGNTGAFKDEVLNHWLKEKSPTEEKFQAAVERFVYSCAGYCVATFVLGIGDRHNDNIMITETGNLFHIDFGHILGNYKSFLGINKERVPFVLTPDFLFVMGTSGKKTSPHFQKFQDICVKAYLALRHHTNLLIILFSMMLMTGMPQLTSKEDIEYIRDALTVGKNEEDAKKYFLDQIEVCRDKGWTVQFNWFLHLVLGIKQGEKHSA

pIC50 (PI3Kγ (p110 gamma)) | pIC50 (PI3Kδ (p110δ/p85α)) | inhibition at 1 µM (PI3Kγ (p110 gamma)) [%] | inhibition at 10 µM (PI3Kγ (p110 gamma)) [%] | inhibition at 1 µM (PI3Kδ (p110δ/p85α); read-out: PI3Kδ % inhib) [%] | inhibition at 10 µM (PI3Kδ (p110δ/p85α); read-out: PI3Kδ % inhib) [%] | inhibition at 10 µM (PI3Kα (p110α/p85α); read-out: PI3Kα % inhib) [%] | inhibition at 10 µM (PI3Kβ (p110β/p85α)) [%] | pEC50 (PI3Kα) | pEC50 (PI3Kγ) | inhibition at 1 µM (PI3Kα (p110α/p85α); 1 μM, read-out: PI3Kα % inhib) [%] | increase in gamma potency compared to analog without amino substituent on the purine ring (PI3Kγ (p110 gamma)) [×] | pIC50 (PI3Kα (p110α/p85α)) | pIC50 (PI3Kβ (p110β/p85α)) | Compound | inhibition at 0.1 µM (PI3Kδ (p110δ/p85α); 0.1 μM, read-out: PI3Kδ % inhib) [%]
4.76 | 6.02 | – | – | – | – | – | – | – | – | – | – | – | – | c1ccc(-c2nc3ccccc3nc2CSc2ncnc3[nH]cnc23)cc1 [Compound Q14] | –
– | – | 12 | 82 | 74 | 99 | 30 | 30 | < 4.70 | < 4.70 | – | – | – | – | CC(Nc1ncnc2[nH]cnc12)c1nc2ccccc2nc1-c1c(F)cccc1F (stereo not drawn) [Compound Q10] | –
– | – | 30 | 83 | 58 | 100 | 50 | 53 | < 4.70 | < 4.70 | – | – | – | – | CCC(Nc1ncnc2[nH]cnc12)c1nc2cccc(C)c2nc1-c1ccccc1 (stereo not drawn) [Compound Q8] | –
– | – | 61 | 95 | 71 | 100 | 88 | 77 | 4.82 | 5.45 | 28 | – | – | – | Cc1cccc2nc(C(C)Nc3ncnc4[nH]cnc34)c(-c3ccc(F)cc3)nc12 (stereo not drawn) [Compound Q7] | –
6.16 | 7.12 | – | – | – | – | – | – | – | – | – | 30 | 4.00 | 5.07 | Nc1nc(NCc2nc3ccccc3nc2-c2ccccc2)c2nc[nH]c2n1 [Compound Q17] | –
5.62 | 6.60 | – | – | – | – | – | – | – | – | – | 8 | – | – | Nc1nc(SCc2nc3ccccc3nc2-c2ccccc2)c2nc[nH]c2n1 [Compound Q15] | –
4.69 | 6.72 | – | – | – | – | – | – | – | – | – | – | 4.29 | 4.84 | c1ccc(-c2nc3ccccc3nc2CNc2ncnc3[nH]cnc23)cc1 [Compound Q16] | –
– | – | – | 79 | 45 | 99 | 53 | 76 | < 4.70 | < 4.70 | – | – | – | – | Cc1ccc(-c2nc3ccccc3nc2C(C)Nc2ncnc3[nH]cnc23)cc1 (stereo not drawn) [Compound Q11] | –
4.33 | 5.93 | – | – | – | – | – | – | – | – | – | – | – | – | Nc1ncnc2c1ncn2Cc1nc2ccccc2nc1-c1ccccc1 [Compound Q13] | –

Compound | pIC50 (PI3Kγ (p110 gamma)) | pIC50 (PI3Kδ (p110δ/p85α)) | inhibition at 1 µM (PI3Kγ (p110 gamma)) [%] | inhibition at 10 µM (PI3Kγ (p110 gamma)) [%] | inhibition at 1 µM (PI3Kδ (p110δ/p85α); read-out: PI3Kδ % inhib) [%] | inhibition at 10 µM (PI3Kδ (p110δ/p85α); read-out: PI3Kδ % inhib) [%] | inhibition at 10 µM (PI3Kα (p110α/p85α); read-out: PI3Kα % inhib) [%] | inhibition at 10 µM (PI3Kβ (p110β/p85α)) [%] | pEC50 (PI3Kα) | pEC50 (PI3Kγ) | inhibition at 1 µM (PI3Kα (p110α/p85α); 1 μM, read-out: PI3Kα % inhib) [%] | increase in gamma potency compared to analog without amino substituent on the purine ring (PI3Kγ (p110 gamma)) [×] | pIC50 (PI3Kα (p110α/p85α)) | pIC50 (PI3Kβ (p110β/p85α)) | inhibition at 0.1 µM (PI3Kδ (p110δ/p85α); 0.1 μM, read-out: PI3Kδ % inhib) [%]
Cc1cccc2nc(C(C)n3cnc4c(N)ncnc43)c(-c3ccccc3)nc12 (stereo not drawn) [Compound Q6, 9-[1-(5-methyl-3-phenylquinoxalin-2-yl)ethyl]-9H-purin-6-amine] | – | – | 48 | 89 | 86 | 100 | 32 | 61 | < 4.70 | < 4.70 | – | – | – | – | 63
